Tests used:
Human IDO1 = Human IDO1 (Homo sapiens (Human), UniProt P14902); experiment: IDO Kynurenine Assay with Human IDO1/HEK293 Cells; type: cell-based; conditions: HEK293 cells with human IDO1; read-out: HEK human IDO-1 (IC50)
Experimental: IDO Kynurenine Assay with Human IDO1/HEK293 Cells
Human IDO1/HEK293 cells were seeded at 10,000 cells per 50 uL per well with RPMI/phenol red free media contains 10% FBS in a 384-well black wall clear bottom tissue culture plate (Matrix Technologies LLC) 125 nL of certain concentration of compound was then added to each well using ECHO liquid handling systems. The cells were incubated for 20 hours in 37° C. incubator with 5% CO2.
The compound treatments were stopped by adding Trichloroacetic Acid (Sigma-Aldrich) to a final concentration at 0.2%. The cell plate was further incubated at 50° C. for 30 minute. The equal volume supernatant (20 uL) and 0.2% (w/v) Ehrlich reagent (4-dimethylaminobenzaldehyde, Sigma-Aldrich) in glacial acetic acid were mixed in a new clear bottom 384-well plate. This plate was then incubated at room temperature for 30 minute. The absorbance at 490 nm was measured on Envision plate reader.

IDO [1] = biological target: T1, IDO (Homo sapiens (Human), UniProt P14902); experiment: LLE_IDO_ABS_DR (IDO assay, method not described)
IDO [2] = biological target: T1, IDO; experiment: Kynurenine assay in IFN-γ-stimulated Hela cells; type: cell-based; conditions: 20 h, read-out: Hela Kyurenine (IC50)
Procedure, shortened: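 Hela cells adhered 5-6 h, then received inhibitor (top dose 30 μM, 3-fold dilutions to 1.5 nM) plus 100 ng/mL human IFN-γ to induce IDO, 20 h at 37° C. TCA added, 30 min at 50° C hydrolyses N-formylkynurenine to kynurenine. Supernatant mixed with Ehrlich reagent, 10 min RT, absorbance 490 nm.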

Human IDO1, sequence (P14902 whole entry): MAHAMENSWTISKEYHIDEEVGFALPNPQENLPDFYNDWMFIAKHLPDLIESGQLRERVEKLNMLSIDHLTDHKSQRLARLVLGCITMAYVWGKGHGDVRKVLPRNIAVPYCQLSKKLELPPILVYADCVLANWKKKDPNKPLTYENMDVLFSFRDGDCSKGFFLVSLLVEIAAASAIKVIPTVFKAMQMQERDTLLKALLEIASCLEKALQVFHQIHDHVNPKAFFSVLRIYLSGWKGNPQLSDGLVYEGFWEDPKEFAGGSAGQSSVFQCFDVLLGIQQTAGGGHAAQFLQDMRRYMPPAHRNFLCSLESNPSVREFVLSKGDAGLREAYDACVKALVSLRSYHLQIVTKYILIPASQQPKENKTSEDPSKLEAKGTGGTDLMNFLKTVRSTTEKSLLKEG
T1 sequence (P14902 whole entry): as above

Structure (SMILES) | IC50 (Human IDO1) [µM] | IC50 (IDO [1]) [µM] | IC50 (IDO [2]) [µM]
C=CC(c1ccccc1)c1cc(-c2ccccc2-c2nnn[nH]2)cc(NC(=O)Nc2ccc(C)cc2)c1OCCC (racemic) [Example 8, 1-(5-(1-Phenylallyl)-4-propoxy-2′-(1H-tetrazol-5-yl)-[1,1′-biphenyl]-3-yl)-3-(p-tolyl)urea] | 0.03 | 0.01 | –
Cc1ccc(NC(=O)Nc2cc(-c3cccc(C(=O)O)c3)ccc2Oc2ccccc2C(C)(C)C)cc1 [Example 226, 4′-(2-tert-butylphenoxy)-3′-(3-p-tolylureido) biphenyl-3-carboxylic acid] | 9.19 | – | 0.79
Cc1ccc(NC(=O)Nc2cc(-c3cc(Cl)cc(C(=O)O)c3)cnc2Oc2ccccc2C(C)(C)C)cc1 [Example 337] | 7.5 | – | 2.26
CCCCc1cc(-c2ccccc2-c2nnn[nH]2)cc(NC(=O)Nc2ccc(C)cc2)c1OCCC [Example 22, 1-(5-Butyl-4-propoxy-2′-(1H-tetrazol-5-yl)-[1,1′-biphenyl]-3-yl)-3-(p-tolyl)urea] | 0.00592 | 0.02 | –
CCCOc1c(NC(=O)Nc2ccc(C)cc2)cc(-c2ccccc2-c2nnn[nH]2)cc1C(CC)CCCc1ccccc1 (stereo not shown) [compound 297] | 0.09 | 0.05 | –
CCCCCc1cc(-c2ccccc2-c2nnn[nH]2)cc(NC(=O)Nc2ccccc2F)c1OCCC [Example 289] | 0.05 | 0.00983 | –
CCCOc1c(/C=C/CC(F)(F)F)cc(-c2ccccc2-c2nnn[nH]2)cc1NC(=O)Nc1ccc(C)cc1 [Example 29, (E)-1-(4-Propoxy-2′-(1H-tetrazol-5-yl)-5-(4,4,4-trifluorobut-1-en-1-yl)-[1,1′-biphenyl]-3-yl)-3-(p-tolyl)urea] | 0.03 | 0.03 | –
COc1ccc(NC(=O)Nc2cc(-c3cccc(C(=O)O)c3)ccc2Oc2ccccc2C(C)(C)C)cc1 [Example 230, 4′-(2-tert-butylphenoxy)-3′-(3-(4-methoxyphenyl)ureido)biphenyl-3-carboxylic acid] | 7.5 | – | 1.81
CCCOc1c(/C=C/C=C(F)F)cc(-c2ccccc2-c2nnn[nH]2)cc1NC(=O)Nc1ccc(C)cc1 [Example 30, (E)-1-(5-(4,4-Difluorobuta-1,3-dien-1-yl)-4-propoxy-2′-(1H-tetrazol-5-yl)-[1,1′-biphenyl]-3-yl)-3-(p-tolyl)urea] | 0.02 | 0.00995 | –
CC(C)(C)c1ccccc1Oc1ccc(-c2cccc(C(=O)O)c2)cc1NC(=O)Nc1ccc(Cl)cc1 [Example 232, 4′-(2-tert-butylphenoxy)-3′-(3-(4-chlorophenyl)ureido)biphenyl-3-carboxylic acid] | 7.5 | – | 1.8
CCCOc1c(CCCC(F)(F)F)cc(-c2ccccc2-c2nnn[nH]2)cc1NC(=O)Nc1ccc(C)cc1 [Example 31, 1-(4-Propoxy-2′-(1H-tetrazol-5-yl)-5-(4,4,4-trifluorobutyl)-[1,1′-biphenyl]-3-yl)-3-(p-tolyl)urea] | 0.02 | 0.04 | –
CC/C=C/Cc1cc(-c2ccccc2-c2nnn[nH]2)cc(NC(=O)Nc2ccccc2F)c1OCCC [Example 284] | 0.00649 | 0.00556 | –
CCCOc1c(CCC)cc(-c2ccccc2-c2nnn[nH]2)cc1NC(=O)Nc1ccc(C)cc1 [Example 16, 1-(4-Propoxy-5-propyl-2′-(1H-tetrazol-5-yl)-[1,1′-biphenyl]-3-yl)-3-(p-tolyl)urea] | 0.03 | 0.03 | –
C/C=C/Cc1cc(-c2ccccc2-c2nnn[nH]2)cc(NC(=O)Nc2ccc(C)cc2)c1OCCC [Example 19, (E)-1-(5-(But-2-en-1-yl)-4-propoxy-2′-(1H-tetrazol-5-yl)-[1,1′-biphenyl]-3-yl)-3-(p-tolyl)urea] | 0.03 | 0.02 | –
CCCOc1c(NC(=O)Nc2ccc(C)cc2)cc(-c2ccccc2-c2nnn[nH]2)cc1C(CC)c1ccccc1 (stereo not shown) [Example 298] | 0.03 | 0.03 | –
CC(C)(C)c1ccccc1Oc1ccc(-c2cccc(C(=O)O)c2)cc1NC(=O)Nc1ccc(Br)cc1 [Example 233, 3′-(3-(4-bromophenyl)ureido)-4′-(2-tert-butylphenoxy) biphenyl-3-carboxylic acid] | 7.5 | – | 2.89
Cc1ccccc1NC(=O)Nc1cc(-c2cccc(C(=O)O)c2)ccc1Oc1ccccc1C(C)(C)C [Example 224, 4′-(2-tert-butylphenoxy)-3′-(3-o-tolylureido) biphenyl-3-carboxylic acid] | 7.5 | – | 1.02

Second part, the compound after the results:

IC50 (Human IDO1) [µM] | IC50 (IDO [1]) [µM] | IC50 (IDO [2]) [µM] | Structure (SMILES)
0.06 | 0.04 | – | Cc1cccc(NC(=O)Nc2cc(-c3ccccc3-c3nnn[nH]3)cc(CC3CC3)c2Oc2ccccc2)c1 [Example 323]
0.03 | 0.01 | – | O=C(Nc1ccc(OC(F)(F)F)cc1)Nc1cc(-c2ccccc2-c2nnn[nH]2)cc(CC2CC2)c1OCC1CC1 [Example 321]
6.19 | – | 2.09 | COc1ccccc1Oc1ccc(-c2ccc(OC)c(C(=O)O)c2)cc1NC(=O)Nc1ccc(C)cc1 [Example 69, 4-methoxy-4′-(2-methoxyphenoxy)-3′-(3-p-tolylureido)biphenyl-3-carboxylic acid]
7.5 | – | 1.89 | COc1cccc(NC(=O)Nc2cc(-c3cccc(C(=O)O)c3)ccc2Oc2ccccc2C(C)(C)C)c1 [Example 229, 4′-(2-tert-butylphenoxy)-3′-(3-(3-methoxyphenyl)ureido)biphenyl-3-carboxylic acid]
6.18 | – | 2.42 | Cc1ccc(NC(=O)Nc2cc(-c3cncc(C(=O)O)c3)cnc2Oc2ccccc2)cc1 [Example 339]
7.5 | – | 2.64 | CC(C)(C)c1ccccc1Oc1ccc(-c2cccc(C(=O)O)c2)cc1NC(=O)Nc1ccc(OC(F)F)cc1 [Example 223, 4′-(2-tert-butylphenoxy)-3′-(3-(4-(difluoromethoxy)phenyl)ureido) biphenyl-3-carboxylic acid]
0.01 | 0.00947 | – | CCCOc1c(C/C=C/C(F)(F)F)cc(-c2ccccc2-c2nnn[nH]2)cc1NC(=O)Nc1ccc(C)cc1 [Example 32, (E)-1-(4-Propoxy-2′-(1H-tetrazol-5-yl)-5-(4,4,4-trifluorobut-2-en-1-yl)-[1,1′-biphenyl]-3-yl)-3-(p-tolyl)urea]
5.17 | – | 2.24 | COc1ccc(-c2ccc(Oc3cccc4c3OC(C)(C)C4)c(NC(=O)Nc3ccc(C)cc3)c2)cc1C(=O)O [Example 135, 4′-(2,2-dimethyl-2,3-dihydrobenzofuran-7-yloxy)-4-methoxy-3′-(3-p-tolylureido)biphenyl-3-carboxylic acid]
0.61 | 0.09 | – | CCCC(Oc1ccc(-c2ccccc2-c2nnn[nH]2)cc1NC(=O)Nc1ccc(C)cc1)c1ccccc1Cl (stereo not shown) [Example 313]
0.00449 | 0.00325 | – | CCCC(CCC)Oc1c(Br)cc(-c2ccccc2-c2nnn[nH]2)cc1NC(=O)Nc1ccccc1F [Example 287]
6.18 | – | 2.42 | Cc1ccc(NC(=O)Nc2cc(-c3ccc(Cl)c(C(=O)O)c3)ccc2Oc2ccccc2C(C)(C)C)cc1 [Example 1, 4′-(2-tert-Butylphenoxy)-4-chloro-3′-(3-p-tolylureido)biphenyl-3-carboxylic acid]
0.09 | 0.05 | – | O=C(Nc1ccc(OC(F)(F)F)cc1)Nc1cc(-c2ccccc2-c2nnn[nH]2)cc(CC2CC2)c1OCCC(F)(F)F [Example 319]
